Data as given in DBAASP.
Values after ≈ are worked out from the molar mass of the structure shown. Values joined by “and” are separate entries in the source; they are usually repeats but may differ in a detail not shown here. Identical values can stand only once. One block for each compound: values may come before it.

Experiments:
Assay in all cases: ≥ marks a high value that may be exact or a test limit, other limits are often not marked, values filed in µg/mL are converted to µM
[1] = tested on: Bacillus subtilis KCTC 1998
[2] = tested on: Escherichia coli ATCC 25922
[3] = tested on: Listeria monocytogenes ATCC 3710
[4] = tested on: Proteus vulgaris KCTC 2433
[5] = tested on: Pseudomonas aeruginosa ATCC 15692
[6] = tested on: Staphylococcus aureus ATCC 29213
[7] = tested on: Staphylococcus epidermidis ATCC 12228
[8] = tested on: Listeria monocytogenes ATCC 19115
[9] = tested on: Staphylococcus aureus CMCC 26003
[10] = tested on: Klebsiella aerogenes ATCC 13048
[11] = tested on: Klebsiella pneumoniae ATCC 700603
[12] = tested on: Lacticaseibacillus casei HZ1
[13] = tested on: Listeria monocytogenes ATCC 7611
Saccharomyces cerevisiae = tested on: Saccharomyces cerevisiae
[14] = tested on: Candida albicans ATCC 10231
Candida krusei CBS 573 = tested on: Candida krusei CBS 573
[15] = tested on: Candida parapsilosis CBS 604
[16] = tested on: Saccharomyces cerevisiae SZMC 0644
[17] = tested on: Candida albicans KCTC 7270
[18] = tested on: Escherichia coli CCARM 1229
[19] = tested on: Escherichia coli CCARM 1238
[20] = tested on: Pseudomonas aeruginosa 4007
[21] = tested on: Pseudomonas aeruginosa 4891
[22] = tested on: Staphylococcus aureus CCARM 3090
[23] = tested on: Staphylococcus aureus CCARM 3518
[24] = tested on: Trichosporon beigelii KCTC 7707
[25] = tested on: Bacillus cereus ATCC 10876
[26] = tested on: Enterococcus faecalis ATCC 29212
Klebsiella pneumoniae = tested on: Klebsiella pneumoniae
[27] = tested on: Pseudomonas aeruginosa ATCC 27853
[28] = tested on: Salmonella enterica subsp. enterica serovar Typhimurium ATCC 14028
[29] = tested on: Staphylococcus aureus ATCC 25923
[30] = tested on: Staphylococcus aureus ATCC 6538
[31] = tested on: Streptococcus agalactiae ATCC 27956
[32] = tested on: Streptococcus dysgalactiae subsp. dysgalactiae ATCC 27957
[33] = tested on: Streptococcus equi subsp. zooepidemicus ATCC 43079
[34] = tested on: Streptococcus iniae KCTC 3657
Aeromonas hydrophila = tested on: Aeromonas hydrophila
Escherichia coli = tested on: Escherichia coli
Staphylococcus aureus = tested on: Staphylococcus aureus
Streptococcus pyogenes = tested on: Streptococcus pyogenes
Vibrio alginolyticus = tested on: Vibrio alginolyticus
Vibrio fluvialis = tested on: Vibrio fluvialis
Vibrio parahaemolyticus = tested on: Vibrio parahaemolyticus

SMILES: CC[C@H](C)[C@H](NC(=O)CNC(=O)[C@H](Cc1cnc[nH]1)NC(=O)[C@H](CCCCN)NC(=O)[C@@H](NC(=O)[C@H](CO)NC(=O)CNC(=O)[C@@H](NC(=O)[C@H](Cc1ccccc1)NC(=O)[C@H](CCCN=C(N)N)NC(=O)[C@H](CCCCN)NC(=O)[C@@H](N)Cc1ccccc1)[C@@H](C)CC)C(C)C)C(=O)NCC(=O)N[C@@H](Cc1cnc[nH]1)C(=O)N[C@@H](CC(C)C)C(=O)N[C@H](C(=O)N[C@@H](Cc1cnc[nH]1)C(=O)N[C@@H](Cc1cnc[nH]1)C(=O)N[C@H](C(=O)NCC(=O)N[C@H](C(=O)N[C@@H](C)C(=O)N[C@@H](CC(C)C)C(N)=O)C(C)C)[C@@H](C)CC)C(C)C [FKRFIGSVKHGIGHLVHHIGVAL]
MIC [1]: 8 µM and 16 µM | MIC [2]: 2 µM and 4 µM | MIC [3]: 16 µM and 8 µM | MIC [4]: 4 µM and 8 µM | MIC [5]: ≥ 32 µM | MIC [6]: 8 µM (≈ 20.2 µg/mL) | MIC [7]: 4 µM and 8 µM

SMILES: CC[C@H](C)[C@H](NC(=O)[C@H](CCCN=C(N)N)NC(=O)[C@H](CCCN=C(N)N)NC(=O)[C@H](Cc1c[nH]c2ccccc12)NC(=O)[C@@H](N)Cc1ccccc1)C(=O)N[C@@H](CCCN=C(N)N)C(=O)N[C@H](C(=O)N[C@H](C(=O)N1CCC[C@H]1C(=O)N[C@H](C(=O)N[C@H](C(=O)N[C@@H](CC(N)=O)C(=O)N1CCC[C@H]1C(=O)N1CCC[C@H]1C(=O)N[C@@H](Cc1ccccc1)C(=O)N[C@@H](CC(C)C)C(=O)N[C@@H](CCC(N)=O)C(=O)N[C@@H](CCC(N)=O)C(=O)N[C@H](C(N)=O)[C@@H](C)O)C(C)C)C(C)C)[C@@H](C)O)C(C)C [FWRRIRVTPVVNPPFLQQT]
MIC [8]: ≥ 109 µM | MIC [9]: ≥ 109 µM

SMILES: CC(C)C[C@H](NC(=O)[C@H](Cc1ccccc1)NC(=O)[C@H](CCCCN)NC(=O)[C@H](Cc1ccccc1)NC(=O)[C@H](Cc1ccccc1)NC(=O)[C@H](Cc1cnc[nH]1)NC(=O)[C@@H](NC(=O)[C@H](Cc1c[nH]c2ccccc12)NC(=O)[C@@H](NC(=O)[C@H](CO)NC(=O)[C@@H]1CCCN1C(=O)[C@H](CC(C)C)NC(=O)[C@H](Cc1ccccc1)NC(=O)[C@H](CC(C)C)NC(=O)[C@H](CCCCN)NC(=O)[C@H](CC(C)C)NC(=O)[C@@H]1CCCN1C(=O)[C@H](CC(N)=O)NC(=O)CN)[C@@H](C)O)C(C)C)C(=O)N[C@@H](CCCN=C(N)N)C(=O)O [GNPLKLFLPSTWVHFFKFLR]
MIC [10]: ≥ 64 µM | MIC [11]: > 256 µM | MIC [12]: ≥ 32 µM | MIC [13]: 4 µM (≈ 9.79 µg/mL) | MIC (Saccharomyces cerevisiae): ≥ 256 µM | MIC [6]: 4 µM (≈ 9.79 µg/mL)

SMILES: CC[C@H](C)[C@H](NC(=O)[C@@H](NC(=O)[C@H](CCCCN)NC(=O)[C@H](CO)NC(=O)[C@H](CCCCN)NC(=O)[C@H](CC(=O)O)NC(=O)[C@H](CO)NC(=O)[C@@H]1CCCN1C(=O)CNC(=O)[C@H](CO)NC(=O)[C@H](Cc1cnc[nH]1)NC(=O)[C@H](Cc1ccc(O)cc1)NC(=O)[C@@H](N)CCCCN)C(C)C)C(=O)N[C@@H](CO)C(=O)O [KYHSGPSDKSKVIS]
MIC [14]: > 65.2 µM | MIC (Candida krusei CBS 573): ≥ 65.2 µM | MIC [15]: ≥ 65.2 µM | MIC [16]: ≥ 65.2 µM

Now from value to compound, other results behind:

MIC [17]: 16 µM (≈ 33.7 µg/mL) | MIC [18]: 2 µM (≈ 4.21 µg/mL) | MIC [19]: 2 µM (≈ 4.21 µg/mL) | MIC [20]: 2 µM (≈ 4.21 µg/mL) | MIC [21]: 4 µM (≈ 8.42 µg/mL) | MIC [22]: 4 µM (≈ 8.42 µg/mL) | MIC [23]: 4 µM (≈ 8.42 µg/mL) | MIC [24]: 8 µM (≈ 16.8 µg/mL)
SMILES: CC[C@H](C)[C@H](NC(=O)[C@H](CC(C)C)NC(=O)[C@H](CCCCN)NC(=O)[C@@H](NC(=O)[C@H](C)NC(=O)[C@H](CCC(=O)O)NC(=O)[C@H](Cc1cnc[nH]1)NC(=O)[C@@H](NC(=O)[C@H](CCCCN)NC(=O)[C@H](CCC(N)=O)NC(=O)[C@H](Cc1ccccc1)NC(=O)[C@@H](NC(=O)[C@H](CCCCN)NC(=O)[C@H](CCCCN)NC(=O)[C@H](CC(C)C)NC(=O)[C@H](C)NC(=O)[C@H](CC(N)=O)NC(=O)[C@@H](N)CC(C)C)C(C)C)[C@@H](C)CC)[C@@H](C)CC)C(N)=O [LNALKKVFQKIHEAIKLI]

MIC [25]: 21.1 µM (≈ 64 µg/mL) | MIC [26]: 13.2 µM (≈ 40.1 µg/mL) | MIC [2]: 0.264 µM (≈ 0.8 µg/mL) | MIC (Klebsiella pneumoniae): 1.32 µM (≈ 4 µg/mL) | MIC [27]: 0.329 µM (≈ 1 µg/mL) | MIC [28]: 1.65 µM (≈ 5 µg/mL) | MIC [29]: 24.7 µM (≈ 75 µg/mL) | MIC [30]: 13.2 µM (≈ 40.1 µg/mL) | MIC [31]: 13.2 µM (≈ 40.1 µg/mL) | MIC [32]: 4.9 µM (≈ 14.9 µg/mL) | MIC [33]: 4.9 µM (≈ 14.9 µg/mL) | MIC [34]: 21.1 µM (≈ 64 µg/mL)
SMILES: CC[C@H](C)[C@H](NC(=O)[C@H](CCCCN)NC(=O)[C@H](CCC(N)=O)NC(=O)[C@H](CC(C)C)NC(=O)CNC(=O)[C@H](CCCCN)NC(=O)CNC(=O)[C@H](CC(C)C)NC(=O)[C@H](CCCCN)NC(=O)[C@H](CCCCN)NC(=O)[C@H](CCCN=C(N)N)NC(=O)[C@H](C)NC(=O)[C@H](CCCCN)NC(=O)[C@H](CCCN=C(N)N)NC(=O)[C@H](Cc1ccccc1)NC(=O)[C@H](Cc1ccccc1)NC(=O)[C@H](CCCCN)NC(=O)[C@@H](N)CO)C(=O)N[C@@H](CCCCN)C(=O)N[C@@H](CC(N)=O)C(=O)N[C@H](C(=O)N[C@@H](CC(C)C)C(=O)N[C@@H](CCCN=C(N)N)C(=O)N[C@@H](CCCCN)C(=O)N[C@@H](Cc1ccc(O)cc1)C(=O)O)C(C)C [SKFFRKARKKLGKGLQKIKNVLRKY]

MIC (Aeromonas hydrophila): 8.93 µM (≈ 15.6 µg/mL) | MIC (Escherichia coli): 8.93 µM (≈ 15.6 µg/mL) | MIC (Staphylococcus aureus): > 143 µM | MIC (Streptococcus pyogenes): 8.93 µM (≈ 15.6 µg/mL) | MIC (Vibrio alginolyticus): ≥ 143 µM | MIC (Vibrio fluvialis): ≥ 143 µM
SMILES: CC[C@H](C)[C@H](NC(=O)[C@H](CCCCN)NC(=O)[C@H](Cc1cnc[nH]1)NC(=O)[C@H](CC(C)C)NC(=O)[C@H](CC(C)C)NC(=O)CNC(=O)[C@H](CC(N)=O)NC(=O)[C@@H](N)C(C)C)C(=O)N[C@@H](Cc1ccc(O)cc1)C(=O)NCC(=O)N[C@@H](CC(N)=O)C(=O)N[C@H](C(=O)N[C@@H](CCCN=C(N)N)C(=O)N[C@@H](Cc1ccc(O)cc1)C(=O)N[C@@H](CO)C(=O)O)[C@@H](C)CC [VNGLLHKIYGNIRYS]
MIC (Vibrio parahaemolyticus): ≥ 35.8 µM
